# According to DBAASP:
# Assays:
# Test in all cases: ≥ marks a high value that may be exact or a test limit, other limits are often not marked, values filed in µg/mL are converted to µM
# [1] = system: Staphylococcus epidermidis KCTC 1917
# Enterococcus faecium = system: Enterococcus faecium
# [2] = system: Staphylococcus aureus KCTC 1621
# Enterococcus faecium VR = system: Enterococcus faecium VR
# Staphylococcus aureus MR = system: Staphylococcus aureus MR
# Enterococcus faecalis = system: Enterococcus faecalis
# [3] = system: Pseudomonas aeruginosa KCTC 1637
# Enterococcus faecalis VR = system: Enterococcus faecalis VR
# [4] = system: Salmonella typhimurium KCTC 1926
# [5] = system: Bacillus subtilis KCTC 3068
# [6] = system: Escherichia coli KCTC 1682
# Bacillus cereus C737 = system: Bacillus cereus C737
# Escherichia coli UB1005 = system: Escherichia coli UB1005
# [7] = system: Pseudomonas aeruginosa PAO1
# [8] = system: Acinetobacter baumannii ATCC 19606
# [9] = system: Escherichia coli ATCC 25922
# [10] = system: Bacillus subtilis ATCC 6051
# [11] = system: Vibrio anguillarum ATCC 43305
# [12] = system: Staphylococcus aureus ATCC 25923
# [13] = system: Pseudomonas aeruginosa ATCC 27853
# [14] = system: Streptococcus pneumoniae ATCC 49619
# [15] = system: Candida albicans ATCC 10231
# [16] = system: Escherichia coli ATCC 23506
# [17] = system: Candida glabrata ATCC 15126
# [18] = system: Aspergillus niger ATCC 16404
# [19] = system: Klebsiella pneumoniae ATCC 700603
# [20] = system: Pseudomonas aeruginosa ATCC 9027
# [21] = system: Staphylococcus aureus ATCC 9144
# [22] = system: Enterococcus faecalis PCM 2673
compound,measurement,setting,value
CC(C)C[C@H](NC(=O)[C@H](CO)NC(=O)[C@H](CC(C)C)NC(=O)[C@H](CS)NC(=O)[C@H](CC(N)=O)NC(=O)[C@H](C)NC(=O)[C@H](C)N)C(=O)NCC(=O)N[C@@H](CCCCN)C(=O)N[C@@H](C)C(N)=O [AANCLSLGKA],MIC,[1],30 µM
same,MIC,Enterococcus faecium,30 µM
same,MIC,[2],30 µM
same,MIC,Enterococcus faecium VR,30 µM
same,MIC,Staphylococcus aureus MR,30 µM
same,MIC,Enterococcus faecalis,30 µM
same,MIC,[3],30 µM
same,MIC,Enterococcus faecalis VR,30 µM
same,MIC,[4],30 µM
same,MIC,[5],30 µM
same,MIC,[6],30 µM
CC[C@H](C)[C@H](NC(=O)[C@H](CC(=O)O)NC(=O)[C@H](Cc1ccccc1)NC(=O)[C@H](CC(C)C)NC(=O)CN)C(=O)N[C@H](C(=O)N[C@@H](CCCCN)C(=O)N[C@@H](CCCCN)C(=O)N[C@H](C(=O)N[C@H](C(=O)NCC(=O)N[C@@H](C)C(=O)N[C@H](C(=O)NCC(=O)N[C@@H](CO)C(=O)N[C@@H](CC(C)C)C(N)=O)C(C)C)C(C)C)C(C)C)C(C)C [GLFDIVKKVVGAVGSL],MIC,Bacillus cereus C737,≥ 79.9 µM
same,MIC,Escherichia coli UB1005,≥ 40 µM
same,MIC,[7],> 79.9 µM
CC(C)C[C@H](N)C(=O)N[C@@H](CCCN=C(N)N)C(=O)N[C@@H](Cc1c[nH]c2ccccc12)C(=O)N[C@H](C(=O)N1CCC[C@H]1C(=O)N[C@H](C(=O)N1CCC[C@H]1C(=O)N[C@@H](CO)C(=O)N[C@@H](Cc1ccc(O)cc1)C(=O)N1CCC[C@H]1C(=O)N[C@@H](CCCN=C(N)N)C(=O)N[C@@H](Cc1ccc(O)cc1)C(=O)N1CCC[C@H]1C(=O)N[C@H](C(=O)N[C@@H](CCCN=C(N)N)C(=O)N[C@@H](CO)C(=O)N[C@@H](CCCN=C(N)N)C(=O)NCC(=O)N[C@@H](CO)C(=O)N[C@@H](CCCN=C(N)N)C(=O)N[C@@H](Cc1c[nH]c2ccccc12)C(=O)N[C@@H](CO)C(=O)N[C@@H](CCCN=C(N)N)C(N)=O)[C@@H](C)O)[C@@H](C)O)[C@@H](C)O [LRWTPTPSYPRYPTRSRGSRWSR],MIC,[8],8 µM
same,MIC,[9],11.3 µM
same,MIC,[10],≥ 32 µM
same,MIC,[11],≥ 32 µM
same,MIC,[12],> 32 µM
same,MIC,[13],> 32 µM
CC[C@H](C)[C@H](NC(=O)[C@H](CC(C)C)NC(=O)[C@H](CCCN=C(N)N)NC(=O)[C@H](Cc1c[nH]c2ccccc12)NC(=O)[C@@H]1CCCN1C(=O)[C@H](Cc1c[nH]c2ccccc12)NC(=O)[C@H](Cc1c[nH]c2ccccc12)NC(=O)[C@@H]1CCCN1C(=O)[C@H](Cc1c[nH]c2ccccc12)NC(=O)[C@H](CCCN=C(N)N)NC(=O)[C@H](CCCN=C(N)N)NC(=O)[C@@H](N)CCCCN)C(N)=O [KRRWPWWPWRLI],MIC,[14],4.49 µM
same,MIC,[15],18 µM
same,MIC,[8],8.99 µM
same,MIC,[16],2.25 µM
same,MIC,[9],4.49 µM
same,MIC,[17],≥ 36 µM
same,MIC,[18],≥ 36 µM
same,MIC,[19],2.25 µM
same,MIC,[20],2.25 µM
same,MIC,[21],4.49 µM
same,MIC,[12],4.49 µM
same,MIC,[22],8.99 µM
